From ChEMBL document CHEMBL3045282, “Production of phytotoxins by Phoma exigua var. exigua, a potential mycoherbicide against perennial thistles” (J Agric Food Chem, 2008)
Active and inactive are the calls of the source. The rule behind the calls is not given here.

How the values were obtained:
Cirsium arvense = assay: Herbicidal activity against Cirsium arvense (Canada thistle) assessed as induction of leaf necrotic lesions measured 48 hr post compound treatment by leaf disk- puncture bioassay
Sonchus arvensis = assay: Herbicidal activity against Sonchus arvensis (field sow-thistle) assessed as induction of leaf necrotic lesions measured 48 hr post compound treatment by leaf disk- puncture bioassay

Structure (SMILES) | Activity (Cirsium arvense) | Activity (Sonchus arvensis)
C=C1[C@@H](C)[C@H]2[C@H](Cc3ccccc3)NC(=O)[C@]23C(=O)/C=C/[C@H](O)CCC[C@@H](C)C/C=C/[C@H]3[C@@H]1O | Active | Active
C=C1[C@@H](C)[C@H]2[C@H](Cc3ccccc3)NC(=O)[C@]23OC(=O)/C=C/CC(O)CC[C@@H](C)C/C=C/[C@H]3[C@@H]1O (stereo partly specified) | Active | 
C[C@H]1C/C=C/[C@H]2C=C(CO)[C@@H](C)[C@H]3[C@H](Cc4ccccc4)NC(=O)[C@]32OC(=O)/C=C/[C@H](O)CCC1 | Active | Active
C[C@H]1C/C=C/[C@H]2[C@@H]3O[C@]3(C)[C@@H](C)[C@H]3[C@H](Cc4ccccc4)NC(=O)[C@]32OC(=O)/C=C/[C@@H](O)CCC1 | Active | Active
O=Cc1ccc(O)cc1 | inactive | inactive
C=C1[C@@H](C)[C@H]2[C@H](Cc3ccccc3)NC(=O)[C@]23OC(=O)/C=C/[C@H](O)CCC[C@@H](C)C/C=C/[C@H]3[C@@H]1O | Active | Active
